Article PMC9699089 (Pathogens, 2022)
Structures can show the parent of a compound that is named as a salt.

Key:
[1] = system: T. brucei brucei AnTat 1.9; assay: In vitro antitrypanosomal activity, Alamar Blue assay; format: cell-based, Trypanosoma brucei brucei; settings: Trypanosoma brucei, slender bloodstream trypomastigotes, AnTat 1.9 strain; mean +/- SD of three independent experiments; read-out: Trypanosoma brucei brucei IC50 Values Trypanos Antat 1.9
Method: The effects of the tested compounds on the growth of T. brucei brucei were assessed using an Alamar Blue® assay described by Räz et al. T. brucei brucei AnTat 1.9 ([…], Belgium) was cultured in MEM with Earle's salts, supplemented according to the protocol of Baltz et al. […] All doses were tested in duplicate. Appropriate controls treated with solvents 0.9% NaCl or DMSO or with suramin, pentamidine, eflornithine, and fexinidazole (reference drugs purchased from Sigma Aldrich and Fluorochem, UK) were added to each set of experiments. After 69 h incubation period at 37 °C, 10 μL of the viability marker Alamar Blue (Fisher) was added to each well, and the plates were incubated for 5 h. The plates were read in a PerkinElmer ENSPIRE (Germany) microplate reader using an excitation wavelength of 530 nm and an emission wavelength of 590 nm.

[2] = system: L. donovani (MHOM/IN/00/DEVI) promastigotes; assay: In vitro antileishmanial activity on promastigotes, MTT assay; format: cell-based; settings: Leishmania donovani, 72 h incubation, mean +/- SD of three independent experiments
Method: L. donovani (MHOM/IN/00/DEVI) used in this study was provided by the CNR Leishmania (Montpellier, France). The effects of the tested compounds on the growth of L. donovani (MHOM/IN/00/DEVI) promastigotes were assessed by MTT assay. Briefly, promastigotes in log-phase in Schneider’s medium supplemented with 20% fetal calf serum (FCS), 2 mM L-glutamine and antibiotics (100 U/mL penicillin and 100 µg/mL streptomycin), were incubated at an average density of 10^6 parasites/mL in sterile 96-well plates with various concentrations of compounds previously dissolved in DMSO (final concentration less than 0.5% v/v), in duplicate. […] Duplicate assays were performed for each sample. After the 72 h incubation period at 27 °C, parasite metabolic activity was determined. Each well was microscopically examined for precipitate formation. To each well was added 10 µL of 10 mg/mL MTT [3-(4,5-dimethylthiazol-2-yl)-2,5-diphenyltetrazolium bromide)] solution followed by 4 h incubation time. The enzyme reaction was stopped by addition of 100 µL of 50% isopropanol/10% sodium dodecyl sulfate. Plates were vigorously shaken (300 rpm) for 10 min, and the absorbance was measured at 570 nm with 630 nm as reference wavelength in a BIOTEK ELx808 Absorbance Microplate Reader (Agilent Technologies, Les Ulis, France). […] IC50 of the parasite’s growth (half maximal inhibitory concentration or IC50 values) were then calculated from the obtained experimental results using a previously described regression program. IC50 values were calculated from three independent experiments.

[3] = system: Plasmodium telomeric sequence FPf8T G-quadruplex; assay: FRET melting assay, FPf8T; format: binding, Plasmodium falciparum; settings: compound 2 μM, oligonucleotide 0.2 μM, K+ conditions
Method: (§1) These were performed with dual-labeled oligonucleotides mimicking the Plasmodium telomeric sequences FPf1T [FAM-5′(GGGTTTA)3-GGG3′-TAMRA] and FPf8T [FAM-5′(GGGTTCA)3GGG3′-TAMRA], the Trypanosoma 9 and 11 chromosomic sequence FTrypBT (also named FEBR1T) [FAM-5′[…]3′-TAMRA], the human telomeric sequence F21T [FAM-(GGGTTA)3-GGG3′-TAMRA] and the human duplex sequence FdxT [FAM5′-[…]-hexaethyleneglycol-[…]3′-TAMRA] [27, 31, 47]. The oligonucleotides were pre-folded in 10 mM lithium cacodylate buffer (pH 7.2), with 10 mM KCl and 90 mM LiCl (K^+ condition). The FAM emissions were recorded at 516 nm using a 492-nm excitation wavelength in the absence and presence of a single compound as a function of temperature (25 to 95 °C) in 96-well microplates using a Stratagene MX3000P real-time PCR device at a rate of 1 °C∙min-1. Data were normalized between 0 and 1, and the required temperature for half-denaturation of oligonucleotides corresponding to the emission value of 0.5 was taken as the Tm. Each experiment was performed in duplicate with 0.2 µM of labeled oligonucleotide and 2 µM of compound under K^+ condition. For each compound, three independent experiments were carried out.

[4] = system: Trypanosoma 9 and 11 chromosomic sequence FTrypBT (FEBR1T) G-quadruplex; assay: FRET melting assay, FtrypBT; format: binding, Trypanosoma brucei brucei; settings: compound 2 μM, oligonucleotide 0.2 μM, K+ conditions
Method: as §1

[5] = system: Plasmodium telomeric sequence FPf1T G-quadruplex; assay: FRET melting assay, FPf1T; format: binding, Plasmodium falciparum; settings: compound 2 μM, oligonucleotide 0.2 μM, K+ conditions
Method: as §1

[6] = system: human duplex sequence FdxT; assay: FRET melting assay, duplex control FdxT; format: binding; settings: compound 2 μM, oligonucleotide 0.2 μM, K+ conditions
Method: as §1

[7] = system: human telomeric sequence F21T G-quadruplex; assay: FRET melting assay, F21T; format: binding; settings: compound 2 μM, oligonucleotide 0.2 μM, K+ conditions
Method: as §1

[8] = system: Plasmodium falciparum CQ-sensitive strain 3D7; assay: In vitro antiplasmodial activity, SYBR Green I fluorescence-based method, strain 3D7; format: cell-based; settings: CQ-sensitive strain 3D7, 48 h incubation, mean of three independent experiments, read-out: P. falciparum Strains IC50 Values 3D7
Method: (§2) The in vitro antiplasmodial activities were tested over concentrations ranging from 39 nM to 40 µM against culture-adapted Plasmodium falciparum reference strains 3D7 and W2. […] These two strains are obtained from the collection of the National Museum of Natural History (Paris, France). The parasites were cultivated in RPMI medium (Sigma Aldrich, Lyon, France) supplemented with 0.5% Albumax I (Life Technologies Corporation, Paisley, UK), hypoxanthine (Sigma Aldrich), and gentamicin (Sigma Aldrich) with human erythrocytes and were incubated at 37 °C in a candle jar, as described previously. The P. falciparum drug susceptibility test was carried out in 96-well flat bottom sterile plates in a final volume of 250 µL. After 48 h incubation period with the drugs, quantities of DNA in treated and control cultures of parasites in human erythrocytes were quantified using the SYBR Green I (Sigma Aldrich) fluorescence-based method. Briefly, after incubation, plates were frozen at -20 °C until use. Plates were then thawed for 2 h at room temperature, and 100 µL of each homogenized culture was transferred to a well of a 96-well flat bottom sterile black plate (Nunc, Inc.) that contained 100 µL of the SYBR Green I lysis buffer (2xSYBR Green, 20 mM Tris base pH 7.5, 5 mM EDTA, 0.008% w/v saponin, 0.08% w/v Triton X-100). […] Plates were incubated for 1 h at room temperature and then read on a fluorescence plate reader (Tecan, Austria) using excitation and emission wavelengths of 485 and 535 nm, respectively.

[9] = system: Plasmodium falciparum CQ-resistant strain W2; assay: In vitro antiplasmodial activity, SYBR Green I fluorescence-based method, strain W2; format: cell-based; settings: CQ-resistant strain W2, 48 h incubation, mean of three independent experiments, read-out: P. falciparum Strains IC50 Values W2
Method: as §2

With `c1ccc(-c2cc(CNCCCN3CCOCC3)nc3c2ccc2c(-c4ccccc4)cc(CNCCCN4CCOCC4)nc23)cc1` (as salt: ammonium) [Compound 1i] as the compound, how does the melting point read?
The melting point was 174 to 176 °C.

Which melting point does the source give for `CN1CCN(CCNCc2cc(-c3ccccc3)c3ccc4c(-c5ccccc5)cc(CNCCN5CCN(C)CC5)nc4c3n2)CC1` (as salt: ammonium) [Compound 1e] here?
The melting point was 185 to 187 °C.

For `CN(C)CCNCc1cc(-c2ccccc2)c2ccc3c(-c4ccccc4)cc(CNCCN(C)C)nc3c2n1` (as salt: ammonium) [Compound 1a, 2,9-Bis[(2-dimethylaminoethyl)aminomethyl]-4,7-diphenyl-1,10-phenanthroline], which melting point is on record?
Its melting point is 179 to 181 °C.

For `CN1CCN(CCCCNCc2cc(-c3ccccc3)c3ccc4c(-c5ccccc5)cc(CNCCCCN5CCN(C)CC5)nc4c3n2)CC1` (as salt: ammonium) [Compound 1g], which melting point is on record?
Its melting point is 207 to 209 °C.

For `c1ccc(-c2cc(CNCCCN3CCCC3)nc3c2ccc2c(-c4ccccc4)cc(CNCCCN4CCCC4)nc23)cc1` (as salt: ammonium) [Compound 1l], which melting point is on record?
Its melting point is 145 to 147 °C.

For `Cc1ccc(C(=O)Nc2ccc(S(=O)(=O)O)c3cc(S(=O)(=O)O)cc(S(=O)(=O)O)c23)cc1NC(=O)c1cccc(NC(=O)Nc2cccc(C(=O)Nc3cc(C(=O)Nc4ccc(S(=O)(=O)O)c5cc(S(=O)(=O)O)cc(S(=O)(=O)O)c45)ccc3C)c2)c1` [Suramine, reference compound], which IC50 [1] is on record?
The IC50 was 0.03 ± 0.003 µM.

With `c1ccc(-c2cc(CNCCc3ccccn3)nc3c2ccc2c(-c4ccccc4)cc(CNCCc4ccccn4)nc23)cc1` (as salt: ammonium) [Compound 1m] as the compound, how does the melting point read?
Its melting point is 165 to 167 °C.

For `c1ccc(-c2cc(CNCCc3ccncc3)nc3c2ccc2c(-c4ccccc4)cc(CNCCc4ccncc4)nc23)cc1` (as salt: ammonium) [Compound 1o], which melting point is on record?
The melting point was 147 to 149 °C.

Which melting point does the source give for `c1ccc(-c2cc(CNCCc3cccnc3)nc3c2ccc2c(-c4ccccc4)cc(CNCCc4cccnc4)nc23)cc1` (as salt: ammonium) [Compound 1n] here?
Its melting point is 164 to 166 °C.

Which IC50 [1] does the source give for `CSc1ccc(OCc2ncc([N+](=O)[O-])n2C)cc1` [Fexinidazole, reference compound] here?
The IC50 was 0.59 ± 0.039 µM.

For `c1ccc(-c2cc(CNCCN3CCOCC3)nc3c2ccc2c(-c4ccccc4)cc(CNCCN4CCOCC4)nc23)cc1` (as salt: ammonium) [Compound 1h], which melting point is on record?
Its melting point is 194 to 196 °C.

For `C[C@@H]1[C@H](O)[C@@H](C)/C=C/C=C/C=C/C=C/C=C/C=C/C=C/[C@H](O[C@@H]2O[C@H](C)[C@@H](O)[C@H](N)[C@@H]2O)C[C@@H]2O[C@](O)(C[C@@H](O)C[C@@H](O)[C@H](O)CC[C@@H](O)C[C@@H](O)CC(=O)O[C@H]1C)C[C@H](O)[C@H]2C(=O)O` [Amphotericin B, reference compound], which IC50 [2] is on record?
Its IC50 is 0.1 ± 0.04 µM.

Which melting point does the source give for `c1ccc(-c2cc(CNCCN3CCCCC3)nc3c2ccc2c(-c4ccccc4)cc(CNCCN4CCCCC4)nc23)cc1` (as salt: ammonium) [Compound 1j] here?
The melting point was 192 to 194 °C.

With `CN(C)CCCCNCc1cc(-c2ccccc2)c2ccc3c(-c4ccccc4)cc(CNCCCCN(C)C)nc3c2n1` (as salt: ammonium) [Compound 1c, 2,9-Bis[(4-dimethylaminobutyl)aminomethyl]-4,7-diphenyl-1,10-phenanthroline] as the compound, how does the melting point read?
The melting point was 111 to 113 °C.

Which melting point does the source give for `c1ccc(-c2cc(CNCCCN3CCCCC3)nc3c2ccc2c(-c4ccccc4)cc(CNCCCN4CCCCC4)nc23)cc1` (as salt: ammonium) [Compound 1k] here?
The melting point was 141 to 143 °C.

For `CN(C)CCNCc1cc(-c2ccccc2)c2ccc3c(-c4ccccc4)cc(CNCCN(C)C)nc3c2n1` [Compound 1a, 2,9-Bis[(2-dimethylaminoethyl)aminomethyl]-4,7-diphenyl-1,10-phenanthroline], which “ΔTm FPf8T” value [3] is on record?
Its value is 1.6 °C.

And the “ΔTm FtrypBT” value [4]?
Its value is 1.9 °C.

What about the “ΔTm FPf1T” value [5] of the same compound?
The value was 1.8 °C.

What about the IC50 [2] of the same compound?
Its IC50 is greater than 12.5 µM.

What about the “ΔTm FdxT” value [6] of the same compound?
The value was −0.3 °C.

And the “ΔTm F21T” value [7]?
Its value is 1.8 °C.

What about the IC50 [1] of the same compound?
The IC50 was 0.67 ± 0.03 µM.

And the IC50 [8]?
The IC50 was 1.8 ± 0.67 µM.

And the IC50 [9]?
The IC50 was 1 ± 0.34 µM.

For `CN(C)CCCNCc1cc(-c2ccccc2)c2ccc3c(-c4ccccc4)cc(CNCCCN(C)C)nc3c2n1` (as salt: ammonium) [Compound 1b, 2,9-Bis[(3-dimethylaminopropyl)aminomethyl]-4,7-diphenyl-1,10-phenanthroline], which melting point is on record?
Its melting point is 161 to 163 °C.

Which melting point does the source give for `CN(C)CCCCCNCc1cc(-c2ccccc2)c2ccc3c(-c4ccccc4)cc(CNCCCCCN(C)C)nc3c2n1` (as salt: ammonium) [Compound 1d, 2,9-Bis[(5-dimethylaminopentyl)aminomethyl]-4,7-diphenyl-1,10-phenanthroline] here?
Its melting point is 119 to 121 °C.

Which melting point does the source give for `CN1CCN(CCCNCc2cc(-c3ccccc3)c3ccc4c(-c5ccccc5)cc(CNCCCN5CCN(C)CC5)nc4c3n2)CC1` (as salt: ammonium) [Compound 1f] here?
Its melting point is 205 to 207 °C.

Which melting point does the source give for `c1ccc(-c2cc(CNCCCc3ccncc3)nc3c2ccc2c(-c4ccccc4)cc(CNCCCc4ccncc4)nc23)cc1` (as salt: ammonium) [Compound 1p] here?
The melting point was 99 to 101 °C.
